From ChEMBL document CHEMBL1151534, “UK-73,093: A non-peptide neurotensin receptor antagonist” (Bioorg Med Chem Lett, 1992)
Calls of active or inactive are those of the source. The rule behind the calls is not given here.

Experiments:
[1] = target: Neurotensin receptor type 1 (Rattus norvegicus, UniProt P20789); assay: Inhibitory concentration required for the displacement of [3H]NT from neurotensin receptor in rat
[2] = target: Neurotensin receptor (Homo sapiens) (UniProt O95665+P30989); assay: Inhibitory concentration required for the displacement of [3H]-NT from neurotensin receptor on human frontal cortex at conc. of 100 uM; NA - No activity; assay type: tissue-based
Neurotensin receptor (Homo sapiens), sequence (O95665 whole entry, looked up): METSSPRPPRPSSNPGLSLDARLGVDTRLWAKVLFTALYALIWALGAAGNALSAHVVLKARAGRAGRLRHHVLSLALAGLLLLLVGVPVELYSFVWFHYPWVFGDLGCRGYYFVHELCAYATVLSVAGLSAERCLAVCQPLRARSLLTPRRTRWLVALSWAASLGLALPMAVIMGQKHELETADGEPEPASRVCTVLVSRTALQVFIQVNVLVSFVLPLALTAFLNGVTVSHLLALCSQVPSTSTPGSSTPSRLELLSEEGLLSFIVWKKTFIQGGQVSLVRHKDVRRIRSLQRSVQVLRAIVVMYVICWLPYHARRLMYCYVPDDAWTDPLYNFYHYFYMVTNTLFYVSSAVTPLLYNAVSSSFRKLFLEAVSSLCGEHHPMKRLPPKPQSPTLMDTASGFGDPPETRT
Neurotensin receptor (Homo sapiens), sequence (P30989 whole entry, looked up): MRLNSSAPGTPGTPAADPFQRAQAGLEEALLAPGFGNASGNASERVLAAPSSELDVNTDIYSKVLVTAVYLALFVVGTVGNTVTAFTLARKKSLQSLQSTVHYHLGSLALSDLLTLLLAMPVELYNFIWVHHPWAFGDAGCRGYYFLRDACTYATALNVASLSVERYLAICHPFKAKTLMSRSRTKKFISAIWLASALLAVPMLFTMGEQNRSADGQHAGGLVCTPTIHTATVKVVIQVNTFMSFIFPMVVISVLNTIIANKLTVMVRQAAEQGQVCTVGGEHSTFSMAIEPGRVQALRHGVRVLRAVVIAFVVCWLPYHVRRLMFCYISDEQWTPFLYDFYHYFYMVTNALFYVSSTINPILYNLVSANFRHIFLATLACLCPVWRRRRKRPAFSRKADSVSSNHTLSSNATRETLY

Rattus norvegicus [3] = assay: Compound was tested for the inhibition of NT-induced hyperlocomotion at a dose of 40 mg/kg (ip); NS - No significant inhibition; assay type: functional, organism-based; parameters: dose 40 mg/kg
N1E-115 [4] = assay: Evaluated for its antagonistic activity against the NT-stimulated cyclic [3H]GMP formation in murine N1E-115 neuroblastoma cells; assay type: functional, cell-based, Mus musculus
[5] = Compound was evaluated for its ability to displace [3H]NT from the neurotensin receptor of bovine brain
Rattus norvegicus [6] = assay: Compound was tested for the inhibition of NT-induced hyperlocomotion at a dose of 120 mg/kg (ip); SI - Significant inhibition; assay type: functional, organism-based; parameters: dose 120 mg/kg
Rattus norvegicus [7] = assay: Compound was tested for the inhibition of NT-induced hyperlocomotion at a dose of 80 mg/kg (ip); SI - Significant inhibition; assay type: functional, organism-based; parameters: dose 80 mg/kg
[8] = target: Neurotensin receptor type 1 (Mus musculus, UniProt O88319); assay: Inhibitory concentration required for the displacement of [3H]NT from neurotensin receptor in mouse; value ranges from 4-6 uM
Neurotensin receptor type 1 (Mus musculus, UniProt O88319), sequence (O88319 whole entry): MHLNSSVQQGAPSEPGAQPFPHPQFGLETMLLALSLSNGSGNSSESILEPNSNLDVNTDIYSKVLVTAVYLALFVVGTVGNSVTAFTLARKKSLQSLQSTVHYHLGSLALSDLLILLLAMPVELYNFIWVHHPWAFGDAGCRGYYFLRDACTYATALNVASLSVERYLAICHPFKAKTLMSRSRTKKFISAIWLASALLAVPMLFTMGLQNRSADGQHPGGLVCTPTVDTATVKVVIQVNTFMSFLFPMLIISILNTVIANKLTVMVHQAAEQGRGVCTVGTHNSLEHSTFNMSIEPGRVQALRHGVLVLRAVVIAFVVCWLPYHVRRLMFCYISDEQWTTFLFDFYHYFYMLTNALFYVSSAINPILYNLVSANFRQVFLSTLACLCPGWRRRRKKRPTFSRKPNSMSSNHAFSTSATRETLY

N1E-115 [9] = assay: Evaluated for the cyclic [3H]GMP formation in murine N1E-115 neuroblastoma cells in absence of neurotensin at conc. of 32 uM; NS - No significant activity; assay type: functional, cell-based; conditions: Mus musculus

Neurotensin receptor type 1 (Rattus norvegicus, UniProt P20789), sequence (P20789 whole entry): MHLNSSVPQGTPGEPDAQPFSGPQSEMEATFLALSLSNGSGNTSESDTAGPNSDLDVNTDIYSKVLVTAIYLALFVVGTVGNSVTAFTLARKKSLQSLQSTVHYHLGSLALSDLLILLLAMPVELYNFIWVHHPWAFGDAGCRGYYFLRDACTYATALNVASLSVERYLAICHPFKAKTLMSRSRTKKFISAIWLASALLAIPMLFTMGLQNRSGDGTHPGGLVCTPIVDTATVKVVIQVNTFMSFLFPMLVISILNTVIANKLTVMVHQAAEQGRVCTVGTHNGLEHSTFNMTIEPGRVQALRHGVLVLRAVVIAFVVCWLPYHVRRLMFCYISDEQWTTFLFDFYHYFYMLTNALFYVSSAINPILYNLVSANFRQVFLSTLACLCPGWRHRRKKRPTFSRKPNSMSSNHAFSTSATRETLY

Cc1ccc(S(=O)(=O)NCCNC2(c3ccccc3)OC(=O)c3ccccc32)cc1 (centres undefined)
IC50 [1]: 49 µM
inhibition [2]: inactive
inhibition (Rattus norvegicus [3]): inactive
Ki (N1E-115 [4]): 4.4 µM
IC50 [5]: 5.5 µM
inhibition (Rattus norvegicus [6]): Active
inhibition (Rattus norvegicus [7]): Active
IC50 [8]: 6 µM
Activity (N1E-115 [9]): inactive
